Here are results for 59 compounds from the METLIN SMRT retention time set (Domingo-Almenara et al. 2019).

A short description of this data set: gradient 5% acetonitrile 3 min, to 50% in 2 min, to 85% in 15 min, held 3 min, 100 µL/min. Conditions: column: Zorbax Extend-C18 2.1 x 50 mm; eluents: water / acetonitrile, 0.1% formic acid. A digest of the protocol: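 Standards, all pure, were combined into mixtures of ~100 molecules and run at 100 μL/min on a Zorbax Extend-C18 column (2.1 × 50 mm, 1.8 μm) with water and acetonitrile, each containing 0.1% formic acid. A coupled quadrupole time-of-flight mass spectrometer operated in positive and negative ionization mode. Retention time values come from computationally picked adduct peaks, each inspected manually.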
The compound `Cc1nc(CC(=O)Nc2ccc(F)cc2Cl)sc1C(=O)NC1CC1` had an RP-LC retention time of 740 s.

Compound `COc1ccccc1NC(=O)CN1C(=O)C(c2ccc(Cl)cc2)=NC1(C)C` displayed an RP-LC retention time of 922 s.

For the compound `O=C(Cn1c(=O)nc(N2CCCCC2)c2ccccc21)Nc1cc(F)cc(F)c1`, the RP-LC retention time was 829 s.

Regarding `COc1ccc(CNC(=O)C2CCCN(S(=O)(=O)c3cc(-c4noc(C)n4)cs3)C2)cc1` (centres undefined), the RP-LC retention time stood at 1040 s.

As to `CCOc1nccnc1NC1CCN(C(=O)Cc2cccs2)CC1`, the RP-LC retention time was determined as 740 s.

Compound `CCOc1ccc(CCNC(=O)C2CCCN(C(=O)c3cc(C)cc(C)c3)C2)cc1OCC` (centres undefined) had an RP-LC retention time of 920 s.

As for `COc1ccc(-c2nc(NCCCN3CCCCC3C)c3ccccc3n2)cc1` (centres undefined), the RP-LC retention time worked out at 579 s.

In turn, `Cc1ccsc1CN1CCc2[nH]nc(C(=O)N3CCOCC3)c2C1` showed an RP-LC retention time of 568 s.

The compound `CCc1noc2nc(C)n(CC(=O)NCCC3=CCCCC3)c(=O)c12` had an RP-LC retention time of 908 s.

Regarding `O=C(CCCn1c(=O)c2cccn2c2ccc(F)cc21)NCc1cccs1`, the RP-LC retention time was found to be 837 s.

The compound `CCOc1ccc(S(=O)(=O)Nc2cccc(-c3cn4cccc(C)c4n3)c2)cc1` gave an RP-LC retention time of 666 s.

`Cc1ccc(-c2nc3ccccc3[nH]2)cc1NC(=O)c1ccco1`: the RP-LC retention time is 625 s.

Regarding `CC1CCCN(Cc2nc(-c3ccc(N4CCSCC4)nc3)no2)C1` (centres undefined), the RP-LC retention time came to 856 s.

`CCc1nc(-c2ccc(S(=O)(=O)N3CCC(C(=O)Nc4ccc5c(c4)OCCO5)CC3)cc2)no1` showed an RP-LC retention time of 929 s.

In turn, `CC(C(=O)Nc1cc(F)ccc1F)C1CCN(C(=O)Nc2ccccc2)CC1` (centres undefined) yielded an RP-LC retention time of 867 s.

In turn, `CCc1nc(-c2csc(S(=O)(=O)N3CCCC(C(=O)Nc4ccc(C)cc4)C3)c2)no1` (centres undefined) came in with an RP-LC retention time of 901 s.

For the compound `CCOC(=O)C1CCN(c2nc(-c3ccc(Cl)cc3)nc3ccccc23)CC1`, the RP-LC retention time came out at 936 s.

For `COc1ccc(NS(=O)(=O)c2cc3n(c2)CCN(C)C3=O)cc1`, the RP-LC retention time was 657 s.

For the compound `O=C(CCC(=O)N1CCN(c2ccc(=O)n(-c3ccccc3)n2)CC1)N1CCOCC1`, the RP-LC retention time was 612 s.

In turn, `CC(C)(C)NC(=O)NCC(c1ccsc1)N1CCc2ccccc2C1` (centres undefined) returned an RP-LC retention time of 593 s.

Consider `Cc1noc(-c2nn(C)c3c2CN(C(=O)c2ccc(Br)cc2)CC3)n1`, for which the RP-LC retention time was 774 s.

For the compound `O=C(CN1CCN(Cc2cccc(Cl)c2)C1=O)NCc1ccc(C(F)(F)F)cc1`, the RP-LC retention time was 931 s.

In turn, `CS(=O)(=O)N1CCC(C(=O)Nc2ccc(Cl)c(C(F)(F)F)c2)Oc2ccccc21` (centres undefined) returned an RP-LC retention time of 1020 s.

Turning to `Cc1nc(-c2csc(S(=O)(=O)N3CCC(C(=O)Nc4cccc(Cl)c4)CC3)c2)no1`, the RP-LC retention time worked out at 1000 s.

`Cc1ccc(N2C(=O)CN(S(C)(=O)=O)CC2(C)C(=O)NCc2ccc(F)cc2)cc1C` (centres undefined): the RP-LC retention time came out at 818 s.

In turn, `CCNC(=O)c1nn(-c2ccc(OC)c(OC)c2)c(OC)cc1=O` returned an RP-LC retention time of 626 s.

The compound `CC1CCN(C(=O)c2cn(-c3cc(-c4nc(C(C)C)no4)ccn3)cn2)CC1` gave an RP-LC retention time of 640 s.

Compound `CCOC(=O)c1[nH]c(C)c(CN(Cc2ccc(C)cc2)C(=O)COC)c1C` had an RP-LC retention time of 684 s.

In turn, `O=C(NCC1CCN(Cc2ccccc2)CC1)C(=O)Nc1ccc(OC(F)(F)F)cc1` had an RP-LC retention time of 626 s.

On to `COc1ccc(C(=S)N2CCN(c3ccccc3Cl)CC2)cc1OC`, for which the RP-LC retention time was 1260 s.

As for `COCCC1CCN(C(=O)COc2ccccc2)CC1`, the RP-LC retention time worked out at 800 s.

Turning to `COc1ccc(-c2cc3nc(C)cc(Nc4ccc(C(N)=O)cc4)n3n2)cc1OC`, the RP-LC retention time came to 586 s.

As for `CC(C)c1cccc(NC(=O)C2CCN(C(=O)c3ncn4c3COC(c3ccccc3)C4)CC2)c1` (centres undefined), the RP-LC retention time worked out at 921 s.

Compound `Cc1noc(C2CN(C(=O)Nc3cccc(F)c3C)CC23CCOCC3)n1` (centres undefined) registered an RP-LC retention time of 1030 s.

For `CC1Oc2ccc(-c3csc(NC(=O)c4cccc(Br)c4)n3)cc2N(C)C1=O` (centres undefined), the RP-LC retention time came out at 960 s.

Turning to `CCC1Oc2ccc(S(=O)(=O)N3CCC(C(=O)N(CC)Cc4ccccc4)CC3)cc2NC1=O` (centres undefined), the RP-LC retention time is 924 s.

Take `COc1ccc(CNC(=O)c2cnc(OC)nc2)c(OC)c1`: the RP-LC retention time came to 715 s.

`Cc1ccc(-c2[nH]ncc2CN2C[C@@H](CO)[C@H](c3ccncc3)C2)cc1`: the RP-LC retention time amounted to 604 s.

Take `CCS(=O)(=O)Nc1ccc(C2(C(=O)NCc3cc(F)cc(F)c3)CCCCC2)cc1`: the RP-LC retention time worked out at 972 s.

Compound `O=C(Nc1ccc(F)cc1F)N1CCC(n2cnc3c(Cl)cccc3c2=O)CC1` showed an RP-LC retention time of 806 s.

On to `CCOCC(=O)Nc1ccc(CC(=O)NCC(F)(F)F)cc1`, for which the RP-LC retention time came to 644 s.

Compound `Cc1ccc(NC(=O)N2CCc3nc[nH]c3C2)cc1` displayed an RP-LC retention time of 575 s.

In the case of `CCOC(=O)C1CCN(C(=O)Cc2c(C(=O)O)c(C)cn2CC)CC1`, the RP-LC retention time turned out to be 715 s.

`O=C(NC(Cc1ccccc1)C(=O)N1CCN(c2ccccn2)CC1)c1ccc(Cl)cc1` (centres undefined) gave an RP-LC retention time of 692 s.

In turn, `CN(C(=O)CSc1nnc(-c2ccc(Cl)cc2)o1)C1CCCCC1` yielded an RP-LC retention time of 1090 s.

`Cc1ccc(N2CCN(C(=O)c3cc(C)n4nccc4n3)CC2)cc1`: the RP-LC retention time came out at 818 s.

`CCN1C(=O)c2ccccc2Oc2ccc(C(=O)N3CCCCCC3)cc21`: the RP-LC retention time is 900 s.

As for `Cc1ccc2c(c1)N(Cc1cccc(F)c1)N=C(C(=O)N1CCCC1)S2(=O)=O`, the RP-LC retention time was found to be 876 s.

As to `Cc1ccc(NC(=O)C2CCCN2S(=O)(=O)c2cc3c(cc2C)NC(=O)CO3)cc1Cl` (centres undefined), the RP-LC retention time is 791 s.

`COCCN1C(=O)CCc2cc(NC(=O)COc3cccc(C)c3)ccc21` yielded an RP-LC retention time of 799 s.

For `Cc1csc(-c2cc(S(=O)(=O)NCc3ccc(C(C)C)cc3)cn2CC(=O)N2CCCC2)n1`, the RP-LC retention time amounted to 1030 s.

Consider `O=C(C1=CN(c2ccc(F)c(Cl)c2)c2cc(F)ccc2S1(=O)=O)N1CCOCC1`, for which the RP-LC retention time worked out at 775 s.

Turning to `Cc1ccc(Nc2nc(C)cc(N3CCN(S(=O)(=O)c4cccc(C(F)(F)F)c4)CC3)n2)cc1`, the RP-LC retention time came out at 886 s.

Take `O=C(Cc1csc2nc(-c3cccc(Br)c3)cn12)NCc1ccc(F)cc1`: the RP-LC retention time turned out to be 909 s.

Turning to `CCCc1nc(C(C)(C)O)c(C(=O)O)n1Cc1ccc(-c2ccccc2-c2nn[nH]n2)cc1`, the RP-LC retention time was found to be 687 s.

As to `O=C(c1cn2nc(Cl)ccc2n1)N(Cc1ccccc1)Cc1ccco1`, the RP-LC retention time turned out to be 974 s.

With `O=C(O)c1cn(Cc2ccccc2F)c(=O)c2ccccc12`, the RP-LC retention time came to 801 s.

As to `C=CCNC(=O)CCc1c(-c2ccc(Cl)cc2)nc2ccccn12`, the RP-LC retention time came to 615 s.

As for `O=C(NCCc1ccc(Cl)cc1)c1nc(Cn2c(=O)oc3ccccc32)no1`, the RP-LC retention time stood at 969 s.
